Structures are written as SMILES.

The target of test [1] is T1, PIK3CA (Homo sapiens, UniProt P42336).
T1 construct: purchased Eurofins DiscoverX KINOMEscan
The test can be described thus: DiscoverX KINOMEscan binding assay at 1 μM, PIK3CA. To be noted: Compound Concentration 1000 nM, read-out: Percent Control. The source says:
(§1) Supplement cells-12-00287-s001.zip/File S2. KinomeScan data for the CAMKK2 probe and negative control.xlsx, sheet "SGC-CAMKK2-1" | column: Percent Control

A further test addresses T2, LIMK1 (Homo sapiens, UniProt P53667).
T2 construct: purchased Eurofins DiscoverX KINOMEscan
The test can be described thus: KINOMEscan 1 μM, LIMK1. To be noted: 1000 nM; Entrez LIMK1; read-out: Percent Control. Type of test: binding.
Source text: as §1

The next test deals with T3, MAST1 (Homo sapiens, UniProt Q9Y2H9).
T3 construct: purchased Eurofins DiscoverX KINOMEscan
Put plainly: KINOMEscan 1 μM, MAST1. Format: binding. The following applies: 1000 nM; Entrez MAST1; read-out: Percent Control.
Source text: as §1

Another test deals with T4, EGFR(G719S) (Homo sapiens, UniProt P00533, G719S).
T4 construct: purchased Eurofins DiscoverX KINOMEscan
T4 sequence (P00533 25-1210 G719S): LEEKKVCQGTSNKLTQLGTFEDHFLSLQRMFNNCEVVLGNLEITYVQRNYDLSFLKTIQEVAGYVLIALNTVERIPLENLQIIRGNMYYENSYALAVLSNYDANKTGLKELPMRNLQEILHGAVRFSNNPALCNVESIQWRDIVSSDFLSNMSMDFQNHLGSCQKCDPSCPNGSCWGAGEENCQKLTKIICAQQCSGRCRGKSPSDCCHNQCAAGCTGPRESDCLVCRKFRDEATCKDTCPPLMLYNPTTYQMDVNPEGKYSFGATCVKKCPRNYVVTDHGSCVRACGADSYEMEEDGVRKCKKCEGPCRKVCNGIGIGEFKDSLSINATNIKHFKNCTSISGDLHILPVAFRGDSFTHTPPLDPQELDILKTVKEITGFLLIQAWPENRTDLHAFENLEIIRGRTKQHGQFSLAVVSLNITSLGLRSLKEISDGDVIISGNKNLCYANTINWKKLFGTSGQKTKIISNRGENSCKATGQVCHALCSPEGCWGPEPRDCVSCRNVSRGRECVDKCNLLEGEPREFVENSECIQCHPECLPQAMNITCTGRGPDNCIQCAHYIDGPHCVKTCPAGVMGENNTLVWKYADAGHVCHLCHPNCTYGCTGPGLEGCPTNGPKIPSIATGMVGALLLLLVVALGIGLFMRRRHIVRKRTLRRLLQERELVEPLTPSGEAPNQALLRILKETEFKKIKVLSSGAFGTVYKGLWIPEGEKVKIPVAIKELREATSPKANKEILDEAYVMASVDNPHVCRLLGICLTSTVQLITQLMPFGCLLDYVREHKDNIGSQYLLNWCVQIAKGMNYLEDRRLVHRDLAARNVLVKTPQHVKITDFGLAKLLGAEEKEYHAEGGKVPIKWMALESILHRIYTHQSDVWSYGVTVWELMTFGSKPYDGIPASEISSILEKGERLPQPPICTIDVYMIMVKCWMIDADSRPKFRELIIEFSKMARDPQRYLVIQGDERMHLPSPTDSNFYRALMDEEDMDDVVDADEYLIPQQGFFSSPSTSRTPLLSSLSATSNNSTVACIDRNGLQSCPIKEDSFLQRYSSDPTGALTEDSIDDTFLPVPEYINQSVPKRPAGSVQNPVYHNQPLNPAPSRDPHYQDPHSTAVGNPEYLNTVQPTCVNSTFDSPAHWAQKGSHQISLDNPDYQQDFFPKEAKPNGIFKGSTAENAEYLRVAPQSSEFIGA
Put plainly: KINOMEscan 1 μM, EGFR(G719S). The following applies: 1000 nM; Entrez EGFR; read-out: Percent Control. Format: binding.
Source text: as §1

A further test addresses T5, RET (Homo sapiens, UniProt P07949).
T5 construct: purchased Eurofins DiscoverX KINOMEscan
The test can be described thus: KINOMEscan 1 μM, RET. Format: binding. To be noted: 1000 nM; Entrez RET; read-out: Percent Control.
Source text: as §1

Another test deals with T6, EPHB1 (Homo sapiens, UniProt P54762).
T6 construct: purchased Eurofins DiscoverX KINOMEscan
The test can be described thus: KINOMEscan 1 μM, EPHB1. The following applies: 1000 nM; Entrez EPHB1; read-out: Percent Control. Type of test: binding.
Source text: as §1

A further test deals with T7, MRCKB (Homo sapiens, UniProt Q9Y5S2).
T7 construct: purchased Eurofins DiscoverX KINOMEscan
Put plainly: KINOMEscan 1 μM, MRCKB. Type of test: binding. To be noted: 1000 nM; Entrez CDC42BPB; read-out: Percent Control.
Source text: as §1

For another test, the system named is FLT3(ITD,F691L). The test can be described thus: KINOMEscan 1 μM, FLT3(ITD,F691L). Type of test: binding, human. To be noted: 1000 nM; Entrez FLT3.
Source text: as §1

Test [2] has as its target T8, ABL1(H396P)-nonphosphorylated (Homo sapiens, UniProt P00519, H396P).
T8 construct: purchased Eurofins DiscoverX KINOMEscan
Put plainly: KINOMEscan 1 μM, ABL1(H396P)-nonphosphorylated. Type of test: binding. To be noted: 1000 nM; Entrez ABL1; read-out: Percent Control.
Source text: as §1

In a further test the target is T9, ULK1 (Homo sapiens, UniProt O75385).
T9 construct: purchased Eurofins DiscoverX KINOMEscan
The test can be described thus: KINOMEscan 1 μM, ULK1. Format: binding. The following applies: 1000 nM; Entrez ULK1; read-out: Percent Control.
Source text: as §1

The target in the next test is T10, RET(V804L) (Homo sapiens, UniProt P07949, V804L).
T10 construct: purchased Eurofins DiscoverX KINOMEscan
The test can be described thus: KINOMEscan 1 μM, RET(V804L). To be noted: 1000 nM; Entrez RET; read-out: Percent Control. Format: binding.
Source text: as §1

A further test has as its target T11, JNK1 (Homo sapiens, UniProt P45983).
T11 construct: purchased Eurofins DiscoverX KINOMEscan
Put plainly: KINOMEscan 1 μM, JNK1. Format: binding. The following applies: 1000 nM; Entrez MAPK8; read-out: Percent Control.
Source text: as §1

In another test the target is T12, TIE2 (Homo sapiens, UniProt Q02763).
T12 construct: purchased Eurofins DiscoverX KINOMEscan
Put plainly: KINOMEscan 1 μM, TIE2. Type of test: binding. To be noted: 1000 nM; Entrez TEK; read-out: Percent Control.
Source text: as §1

The next test addresses T13, PCTK2 (Homo sapiens, UniProt Q00537).
T13 construct: purchased Eurofins DiscoverX KINOMEscan
Put plainly: DiscoverX KINOMEscan binding assay at 1 μM, PCTK2. The following applies: PCTK2 (CDK17); Compound Concentration 1000 nM; read-out: Percent Control.
Source text: as §1

The target of a further test is T14, CSNK2A2 (Homo sapiens, UniProt P19784).
T14 construct: purchased Eurofins DiscoverX KINOMEscan
The test can be described thus: KINOMEscan 1 μM, CSNK2A2. Format: binding. The following applies: 1000 nM; Entrez CSNK2A2; read-out: Percent Control.
Source text: as §1

Another test has as its target T15, CAMK4 (Homo sapiens, UniProt Q16566).
T15 construct: purchased Eurofins DiscoverX KINOMEscan
Put plainly: KINOMEscan 1 μM, CAMK4. Type of test: binding. The following applies: 1000 nM; Entrez CAMK4; read-out: Percent Control.
Source text: as §1

In the next test the target is T16, TGFBR1 (Homo sapiens, UniProt P36897).
T16 construct: purchased Eurofins DiscoverX KINOMEscan
The test can be described thus: DiscoverX KINOMEscan binding assay at 1 μM, TGFBR1. To be noted: Compound Concentration 1000 nM, read-out: Percent Control.
Source text: as §1

A further test deals with T17, CAMK1B (Homo sapiens, UniProt Q6P2M8).
T17 construct: purchased Eurofins DiscoverX KINOMEscan
Put plainly: KINOMEscan 1 μM, CAMK1B. Type of test: binding. To be noted: 1000 nM; Entrez PNCK; read-out: Percent Control.
Source text: as §1

Another test deals with T18, ALK(L1196M) (Homo sapiens, UniProt Q9UM73, L1196M).
T18 construct: purchased Eurofins DiscoverX KINOMEscan
The test can be described thus: KINOMEscan 1 μM, ALK(L1196M). Type of test: binding. To be noted: 1000 nM; Entrez ALK; read-out: Percent Control.
Source text: as §1

For the next test, the target named is T19, CDK4 (Homo sapiens, UniProt P11802).
T19 construct: purchased Eurofins DiscoverX KINOMEscan
Put plainly: KINOMEscan at 1 μM, CDK4. Type of test: binding. To be noted: 1000 nM, read-out: Percent Control. The text has this: (§2) Supplement cells-12-00287-s001.zip/File S2. KinomeScan data for the CAMKK2 probe and negative control.xlsx, sheet "SGC-CAMKK2-1N" | column: Percent Control

Another test addresses T20, STK35 (Homo sapiens, UniProt Q8TDR2).
T20 construct: purchased Eurofins DiscoverX KINOMEscan
Put plainly: KINOMEscan at 1 μM, STK35. Format: binding. The following applies: 1000 nM, read-out: Percent Control.
Source text: as §2

The target in another test is T21, PIKFYVE (Homo sapiens, UniProt Q9Y2I7).
T21 construct: purchased Eurofins DiscoverX KINOMEscan
The test can be described thus: KINOMEscan at 1 μM, PIKFYVE. To be noted: 1000 nM, read-out: Percent Control. Format: binding.
Source text: as §2

Test [3] has as its target T1, PIK3CA. The test can be described thus: KINOMEscan at 1 μM, PIK3CA. Format: binding. The following applies: 1000 nM, read-out: Percent Control.
Source text: as §2

The next test deals with T22, FGFR2 (Homo sapiens, UniProt P21802).
T22 construct: purchased Eurofins DiscoverX KINOMEscan
T22 sequence (P21802 22-821): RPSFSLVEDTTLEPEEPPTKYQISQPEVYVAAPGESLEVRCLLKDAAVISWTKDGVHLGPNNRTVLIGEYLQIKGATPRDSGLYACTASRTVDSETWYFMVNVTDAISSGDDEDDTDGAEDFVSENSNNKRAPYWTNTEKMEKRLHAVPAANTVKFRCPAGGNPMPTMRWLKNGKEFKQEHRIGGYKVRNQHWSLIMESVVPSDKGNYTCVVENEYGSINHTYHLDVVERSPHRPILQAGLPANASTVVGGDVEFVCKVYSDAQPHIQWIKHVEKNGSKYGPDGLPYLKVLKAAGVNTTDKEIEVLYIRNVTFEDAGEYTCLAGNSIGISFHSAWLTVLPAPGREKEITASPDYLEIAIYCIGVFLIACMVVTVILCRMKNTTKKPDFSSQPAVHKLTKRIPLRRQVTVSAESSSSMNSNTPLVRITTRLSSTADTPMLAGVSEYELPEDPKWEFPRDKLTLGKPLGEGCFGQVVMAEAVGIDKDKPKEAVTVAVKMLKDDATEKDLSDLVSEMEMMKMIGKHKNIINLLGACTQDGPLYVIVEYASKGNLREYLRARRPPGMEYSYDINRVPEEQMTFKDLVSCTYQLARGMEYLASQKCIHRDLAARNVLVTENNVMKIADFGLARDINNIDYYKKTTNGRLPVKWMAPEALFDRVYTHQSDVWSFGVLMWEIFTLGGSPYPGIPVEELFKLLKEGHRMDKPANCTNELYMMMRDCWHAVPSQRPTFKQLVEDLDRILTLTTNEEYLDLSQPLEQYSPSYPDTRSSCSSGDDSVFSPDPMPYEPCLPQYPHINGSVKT
The test can be described thus: KINOMEscan at 1 μM, FGFR2. Format: binding. The following applies: 1000 nM, read-out: Percent Control.
Source text: as §2

The target in test [4] is T23, ABL1(F317L)-phosphorylated (Homo sapiens, UniProt P00519, F317L).
T23 construct: purchased Eurofins DiscoverX KINOMEscan
Put plainly: KINOMEscan at 1 μM, ABL1(F317L)-phosphorylated. The following applies: 1000 nM, read-out: Percent Control. Format: binding.
Source text: as §2

The target in test [5] is T24, RSK2(Kin.Dom.2-C-terminal) (Homo sapiens, UniProt P51812).
T24 construct: RSK2(Kin.Dom.2-C-terminal); purchased Eurofins DiscoverX KINOMEscan
The test can be described thus: KINOMEscan at 1 μM, RSK2(Kin.Dom.2-C-terminal). Format: binding. To be noted: 1000 nM, read-out: Percent Control.
Source text: as §2

The target of another test is T25, PIK3CA(Q546K) (Homo sapiens, UniProt P42336, Q546K).
T25 construct: purchased Eurofins DiscoverX KINOMEscan
T25 sequence (P42336 whole entry Q546K): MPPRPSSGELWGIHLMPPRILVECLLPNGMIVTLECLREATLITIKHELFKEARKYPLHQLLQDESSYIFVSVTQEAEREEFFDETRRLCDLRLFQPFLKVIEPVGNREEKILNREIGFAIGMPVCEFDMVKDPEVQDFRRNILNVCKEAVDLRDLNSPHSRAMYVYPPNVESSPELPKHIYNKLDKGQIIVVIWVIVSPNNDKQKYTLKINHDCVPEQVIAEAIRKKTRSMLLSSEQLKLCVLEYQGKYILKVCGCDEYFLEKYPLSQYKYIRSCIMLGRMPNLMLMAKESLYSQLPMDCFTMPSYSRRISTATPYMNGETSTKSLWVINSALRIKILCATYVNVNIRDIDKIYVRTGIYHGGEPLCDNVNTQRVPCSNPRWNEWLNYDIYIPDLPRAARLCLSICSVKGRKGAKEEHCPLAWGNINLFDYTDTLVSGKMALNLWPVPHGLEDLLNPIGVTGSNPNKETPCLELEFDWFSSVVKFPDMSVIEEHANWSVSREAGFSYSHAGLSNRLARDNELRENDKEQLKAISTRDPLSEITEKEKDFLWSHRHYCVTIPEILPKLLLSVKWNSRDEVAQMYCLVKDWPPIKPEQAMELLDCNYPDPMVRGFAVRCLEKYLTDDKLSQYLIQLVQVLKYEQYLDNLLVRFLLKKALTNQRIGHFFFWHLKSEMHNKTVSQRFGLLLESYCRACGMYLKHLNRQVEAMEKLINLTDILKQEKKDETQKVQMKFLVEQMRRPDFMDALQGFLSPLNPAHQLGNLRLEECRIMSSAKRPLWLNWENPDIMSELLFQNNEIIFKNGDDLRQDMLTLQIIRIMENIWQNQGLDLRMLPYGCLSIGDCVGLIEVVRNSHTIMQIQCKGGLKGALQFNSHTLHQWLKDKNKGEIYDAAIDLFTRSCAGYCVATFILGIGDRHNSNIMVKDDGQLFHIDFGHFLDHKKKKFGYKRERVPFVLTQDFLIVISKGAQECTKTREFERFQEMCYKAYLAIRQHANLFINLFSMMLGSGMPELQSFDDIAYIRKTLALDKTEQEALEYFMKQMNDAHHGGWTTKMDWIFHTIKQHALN
Put plainly: KINOMEscan at 1 μM, PIK3CA(Q546K). Format: binding. The following applies: 1000 nM, read-out: Percent Control.
Source text: as §2

For a further test, the target named is T26, SRPK1 (Homo sapiens, UniProt Q96SB4).
T26 construct: purchased Eurofins DiscoverX KINOMEscan
The test can be described thus: KINOMEscan at 1 μM, SRPK1. Type of test: binding. The following applies: 1000 nM, read-out: Percent Control.
Source text: as §2

A further test deals with T27, AMPK-alpha2 (Homo sapiens, UniProt P54646).
T27 construct: purchased Eurofins DiscoverX KINOMEscan
Put plainly: KINOMEscan at 1 μM, AMPK-alpha2. Type of test: binding. The following applies: 1000 nM, read-out: Percent Control.
Source text: as §2

Another test deals with T28, CDK4-cyclinD1 (Homo sapiens, UniProt P11802).
T28 construct: purchased Eurofins DiscoverX KINOMEscan
The test can be described thus: KINOMEscan at 1 μM, CDK4-cyclinD1. Format: binding. To be noted: 1000 nM, read-out: Percent Control.
Source text: as §2

Another test has as its target T29, SLK (Homo sapiens, UniProt Q9H2G2).
T29 construct: purchased Eurofins DiscoverX KINOMEscan
The test can be described thus: KINOMEscan binding assay at 1 μM, SLK. The following applies: Compound Concentration 1000 nM; read-out: Percent Control.
Source text: as §2

Another test concerns the target T30, MAP4K2 (Homo sapiens, UniProt Q12851).
T30 construct: purchased Eurofins DiscoverX KINOMEscan
Put plainly: KINOMEscan at 1 μM, MAP4K2. Type of test: binding. The following applies: 1000 nM, read-out: Percent Control.
Source text: as §2

T1 sequence (P42336 whole entry): as the sequence (P42336 whole entry Q546K) above, with K546Q counted along it
T29 sequence (Q9H2G2 whole entry): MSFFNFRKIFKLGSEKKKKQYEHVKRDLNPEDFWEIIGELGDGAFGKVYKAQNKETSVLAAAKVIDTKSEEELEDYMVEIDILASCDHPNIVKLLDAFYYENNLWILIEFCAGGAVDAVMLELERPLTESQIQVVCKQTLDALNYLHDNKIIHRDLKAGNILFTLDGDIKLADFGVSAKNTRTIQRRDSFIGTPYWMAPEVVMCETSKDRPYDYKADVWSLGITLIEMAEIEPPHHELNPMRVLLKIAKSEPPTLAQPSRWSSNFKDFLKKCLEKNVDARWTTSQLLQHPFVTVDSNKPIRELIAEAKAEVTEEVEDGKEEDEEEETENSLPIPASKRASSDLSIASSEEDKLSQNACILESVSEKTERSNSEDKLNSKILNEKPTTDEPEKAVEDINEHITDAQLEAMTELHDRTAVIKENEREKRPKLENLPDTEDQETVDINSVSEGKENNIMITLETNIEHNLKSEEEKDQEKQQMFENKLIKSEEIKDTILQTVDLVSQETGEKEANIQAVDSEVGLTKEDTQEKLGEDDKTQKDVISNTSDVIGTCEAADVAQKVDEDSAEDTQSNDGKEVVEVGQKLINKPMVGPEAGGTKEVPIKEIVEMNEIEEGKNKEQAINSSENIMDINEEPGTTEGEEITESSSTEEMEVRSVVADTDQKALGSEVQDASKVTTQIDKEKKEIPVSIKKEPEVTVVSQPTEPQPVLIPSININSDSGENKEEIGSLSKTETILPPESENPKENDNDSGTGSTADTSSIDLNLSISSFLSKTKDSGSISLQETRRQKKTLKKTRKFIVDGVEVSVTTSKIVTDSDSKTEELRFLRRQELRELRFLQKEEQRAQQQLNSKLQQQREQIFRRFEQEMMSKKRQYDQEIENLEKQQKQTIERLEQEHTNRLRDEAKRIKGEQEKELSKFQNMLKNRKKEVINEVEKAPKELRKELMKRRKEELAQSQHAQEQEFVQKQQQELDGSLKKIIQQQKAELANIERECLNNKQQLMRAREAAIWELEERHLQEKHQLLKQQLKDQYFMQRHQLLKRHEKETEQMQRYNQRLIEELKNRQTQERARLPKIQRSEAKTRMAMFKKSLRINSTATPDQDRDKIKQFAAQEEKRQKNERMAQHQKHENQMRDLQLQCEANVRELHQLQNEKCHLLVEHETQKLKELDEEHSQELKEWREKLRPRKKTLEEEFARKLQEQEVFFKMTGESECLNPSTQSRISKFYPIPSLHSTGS
T20 sequence (Q8TDR2 whole entry): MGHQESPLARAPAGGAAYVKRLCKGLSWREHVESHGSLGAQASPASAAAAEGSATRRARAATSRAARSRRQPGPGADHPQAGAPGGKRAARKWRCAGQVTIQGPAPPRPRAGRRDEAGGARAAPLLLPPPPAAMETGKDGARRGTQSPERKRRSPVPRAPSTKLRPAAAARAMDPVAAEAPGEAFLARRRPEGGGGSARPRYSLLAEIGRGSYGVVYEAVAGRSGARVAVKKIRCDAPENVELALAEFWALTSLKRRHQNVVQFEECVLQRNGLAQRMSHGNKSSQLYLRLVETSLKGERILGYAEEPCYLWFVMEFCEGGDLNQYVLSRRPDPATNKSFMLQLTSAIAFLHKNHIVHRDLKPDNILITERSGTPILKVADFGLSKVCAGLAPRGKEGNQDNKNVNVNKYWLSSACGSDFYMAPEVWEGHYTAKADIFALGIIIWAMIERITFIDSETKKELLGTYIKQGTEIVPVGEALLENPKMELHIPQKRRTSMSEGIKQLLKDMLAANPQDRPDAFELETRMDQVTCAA

For `Cc1cccc(-c2cnc3occ(-c4ccc(C(=O)O)c(C5CCCC5)c4)c3c2)c1` [SGC-CAMKK2-1 (YL-36)], the remaining binding at 1 µM worked out at 100% on PIK3CA [1]; 99% on LIMK1; 65% at MAST1; 77% on EGFR(G719S); 98% at RET; 100% on EPHB1. Further, the remaining binding at 1 µM was 82% on MRCKB; 100% in test [2]; 62% at ULK1; 94% at RET(V804L); 100% on JNK1; 97% at TIE2. In addition, the remaining binding at 1 µM on PCTK2 stood at 100%; on CSNK2A2, 100%; on CAMK4, 100%; on TGFBR1, 100%; on CAMK1B, 64%; on ALK(L1196M), 96%. In addition, the “Percent Control” value with FLT3(ITD,F691L) is recorded as 100%.

For the molecule `O=C(O)c1ccc(-c2coc3ncc(-c4ccccc4)cc23)cc1Cl` [SGC-CAMKK2-1N (UNC-YL-83)], the remaining binding at 1 µM came to 82% at CDK4; 88% at STK35; 84% at PIKFYVE; 74% on PIK3CA [3]; 84% at FGFR2; 79% in [4]. Besides, the remaining binding at 1 µM is 70% in [5]; 73% on PIK3CA(Q546K); 85% at SRPK1; 100% on AMPK-alpha2; 70% at CDK4-cyclinD1; 100% at SLK. Moreover, at MAP4K2, the remaining binding at 1 µM is 77%.

These data come from article PMC9856672, “SGC-CAMKK2-1: A Chemical Probe for CAMKK2” (Cells, 2023).
